Results taken from ChEMBL document CHEMBL2311518 (J Med Chem, 2013).
Several values for one entry are separate records, joined by “and”; a condition that tells them apart may be missing. Equal entries are not always repeated. Activity calls are given as the source filed them. The rule behind the calls is not given here.

Legend:
[1] = biological target: Neuronal acetylcholine receptor; alpha4/beta4 (Rattus norvegicus, UniProt P09483+P12392); assay: biochemical
Description: Displacement of [3H]epibatidine from rat recombinant alpha4beta4 nAChR expressed in HEK293 cells after 4 hrs by scintillation counting analysis

[2] = biological target: T1, Neuronal acetylcholine receptor; alpha3/beta4 (Rattus norvegicus, UniProt P04757+P12392); assay: biochemical
Description: Displacement of [3H]epibatidine from rat recombinant alpha3beta4 nAChR expressed in HEK293 cells after 4 hrs by scintillation counting analysis

[3] = biological target: Neuronal acetylcholine receptor; alpha4/beta2 (Rattus norvegicus, UniProt P09483+P12390); assay: biochemical
Description: Displacement of [3H]epibatidine from rat recombinant alpha4beta2 nAChR expressed in HEK293 cells after 4 hrs by scintillation counting analysis

[4] = biological target: Neuronal acetylcholine receptor; alpha3/beta4 (Rattus norvegicus) (UniProt P04757+P12392); assay: Modulation of rat alpha3beta4 nAChR expressed in HEK293 cells up to 1000 uM after 30 mins by FLIPR membrane potential blue assay; assay type: cell-based
[5] = biological target: T2, Neuronal acetylcholine receptor; alpha4/beta2 (Homo sapiens, UniProt P17787+P43681)
Description: Agonist activity at human 3:2 alpha4beta2 nAChR expressed in Xenopus laevis oocytes after 1 min by two electrode voltage clamp technique

[6] = biological target: T2, Neuronal acetylcholine receptor; alpha4/beta2; remark: listed apart in the source
Description: Partial agonist activity at human 2:3 alpha4beta2 nAChR expressed in Xenopus laevis oocytes after 1 min by two electrode voltage clamp technique

[7] = biological target: Neuronal acetylcholine receptor subunit alpha-7 (Rattus norvegicus, UniProt Q05941); conditions: tsa-201
Description: Displacement of [3H]MLA from rat nAChR alpha7 linked to ion channel portion of 5-HT3A receptor expressed in human tsA-201 cells after 2.5 hrs by scintillation counting analysis

[8] = biological target: Acetylcholine-binding protein (Lymnaea stagnalis, UniProt P58154); conditions: hek293
Description: Displacement of [3H]epibatidine from Lymnaea stagnalis AChBP linked to ion channel portion of 5-HT3A receptor expressed in HEK293 cells after 4 hrs by scintillation counting analysis

[9] = biological target: T1, Neuronal acetylcholine receptor; alpha3/beta4
Description: Agonist activity at rat alpha3beta4 nAChR expressed in HEK293 cells after 30 mins by FLIPR membrane potential blue assay

T2 sequence (P17787 whole entry): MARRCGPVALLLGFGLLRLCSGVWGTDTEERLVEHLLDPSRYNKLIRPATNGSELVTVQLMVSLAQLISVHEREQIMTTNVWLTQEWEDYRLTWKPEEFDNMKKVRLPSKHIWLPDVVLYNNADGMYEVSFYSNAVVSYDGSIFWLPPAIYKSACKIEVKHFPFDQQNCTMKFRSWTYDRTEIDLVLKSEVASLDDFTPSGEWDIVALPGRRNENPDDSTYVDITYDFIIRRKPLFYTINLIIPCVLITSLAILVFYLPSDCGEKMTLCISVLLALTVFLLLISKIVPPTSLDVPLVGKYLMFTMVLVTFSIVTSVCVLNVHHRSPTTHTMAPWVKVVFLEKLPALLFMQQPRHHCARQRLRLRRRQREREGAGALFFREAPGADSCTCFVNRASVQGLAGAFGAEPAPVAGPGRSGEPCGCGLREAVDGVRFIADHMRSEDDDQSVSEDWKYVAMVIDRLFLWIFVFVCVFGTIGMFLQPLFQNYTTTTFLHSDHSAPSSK
T2 sequence (P43681 whole entry): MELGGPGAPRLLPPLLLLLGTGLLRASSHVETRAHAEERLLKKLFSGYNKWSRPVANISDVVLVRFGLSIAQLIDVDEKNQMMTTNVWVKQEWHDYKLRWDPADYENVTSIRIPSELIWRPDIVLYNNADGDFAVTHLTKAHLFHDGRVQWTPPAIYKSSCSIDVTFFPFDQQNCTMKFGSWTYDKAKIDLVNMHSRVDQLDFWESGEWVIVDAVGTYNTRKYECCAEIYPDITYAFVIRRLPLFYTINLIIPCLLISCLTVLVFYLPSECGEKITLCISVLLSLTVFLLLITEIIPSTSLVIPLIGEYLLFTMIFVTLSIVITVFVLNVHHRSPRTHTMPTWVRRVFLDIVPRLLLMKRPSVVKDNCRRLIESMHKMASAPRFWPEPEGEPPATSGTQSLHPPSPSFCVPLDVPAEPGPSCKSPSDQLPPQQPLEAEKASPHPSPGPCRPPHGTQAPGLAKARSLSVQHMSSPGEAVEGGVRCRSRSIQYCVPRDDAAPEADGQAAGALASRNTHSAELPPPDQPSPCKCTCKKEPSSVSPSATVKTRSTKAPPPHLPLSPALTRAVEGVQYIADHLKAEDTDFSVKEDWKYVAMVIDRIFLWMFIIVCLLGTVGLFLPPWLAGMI
Sequence of Acetylcholine-binding protein (P58154 20-229 limits assumed): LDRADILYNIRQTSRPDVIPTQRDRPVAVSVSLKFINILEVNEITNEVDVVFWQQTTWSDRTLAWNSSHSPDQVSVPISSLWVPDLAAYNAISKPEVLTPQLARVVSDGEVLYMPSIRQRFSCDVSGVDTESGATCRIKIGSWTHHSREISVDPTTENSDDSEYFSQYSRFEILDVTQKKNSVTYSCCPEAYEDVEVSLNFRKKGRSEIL
Sequence of Neuronal acetylcholine receptor; alpha4/beta4 (P09483 whole entry): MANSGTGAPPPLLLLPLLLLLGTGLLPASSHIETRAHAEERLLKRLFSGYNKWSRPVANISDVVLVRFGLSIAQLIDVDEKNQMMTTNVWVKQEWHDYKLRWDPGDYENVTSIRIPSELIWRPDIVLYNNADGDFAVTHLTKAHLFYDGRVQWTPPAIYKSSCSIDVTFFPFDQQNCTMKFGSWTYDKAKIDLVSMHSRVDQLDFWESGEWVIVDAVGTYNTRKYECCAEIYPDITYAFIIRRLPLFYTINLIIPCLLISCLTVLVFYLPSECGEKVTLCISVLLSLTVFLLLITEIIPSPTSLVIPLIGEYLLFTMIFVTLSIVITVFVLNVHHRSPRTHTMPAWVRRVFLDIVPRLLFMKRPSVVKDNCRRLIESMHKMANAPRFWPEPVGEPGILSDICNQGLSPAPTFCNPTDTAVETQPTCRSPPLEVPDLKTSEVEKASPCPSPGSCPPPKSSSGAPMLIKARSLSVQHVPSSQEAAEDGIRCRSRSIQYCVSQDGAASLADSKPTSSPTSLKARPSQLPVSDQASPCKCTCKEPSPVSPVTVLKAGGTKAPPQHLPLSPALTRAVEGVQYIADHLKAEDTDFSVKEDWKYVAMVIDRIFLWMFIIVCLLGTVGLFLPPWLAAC
Sequence of Neuronal acetylcholine receptor; alpha4/beta4 (P12392 whole entry): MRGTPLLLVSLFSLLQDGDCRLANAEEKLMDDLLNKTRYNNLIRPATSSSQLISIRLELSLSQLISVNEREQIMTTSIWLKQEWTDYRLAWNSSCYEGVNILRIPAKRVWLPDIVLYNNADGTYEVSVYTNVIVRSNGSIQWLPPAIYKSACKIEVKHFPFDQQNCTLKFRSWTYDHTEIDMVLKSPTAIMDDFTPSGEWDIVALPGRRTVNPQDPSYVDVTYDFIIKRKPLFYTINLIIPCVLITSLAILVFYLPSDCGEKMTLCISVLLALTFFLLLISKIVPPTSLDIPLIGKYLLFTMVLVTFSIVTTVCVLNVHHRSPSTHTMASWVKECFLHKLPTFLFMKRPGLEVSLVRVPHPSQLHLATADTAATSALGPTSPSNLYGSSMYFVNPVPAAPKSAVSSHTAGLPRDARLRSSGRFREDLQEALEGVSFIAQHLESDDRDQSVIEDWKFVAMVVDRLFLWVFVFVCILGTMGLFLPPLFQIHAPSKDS
Sequence of Neuronal acetylcholine receptor; alpha4/beta2 (Rattus norvegicus, UniProt P09483+P12390) (P09483 whole entry): as the sequence (P09483 whole entry) above
Sequence of Neuronal acetylcholine receptor; alpha4/beta2 (Rattus norvegicus, UniProt P09483+P12390) (P12390 whole entry): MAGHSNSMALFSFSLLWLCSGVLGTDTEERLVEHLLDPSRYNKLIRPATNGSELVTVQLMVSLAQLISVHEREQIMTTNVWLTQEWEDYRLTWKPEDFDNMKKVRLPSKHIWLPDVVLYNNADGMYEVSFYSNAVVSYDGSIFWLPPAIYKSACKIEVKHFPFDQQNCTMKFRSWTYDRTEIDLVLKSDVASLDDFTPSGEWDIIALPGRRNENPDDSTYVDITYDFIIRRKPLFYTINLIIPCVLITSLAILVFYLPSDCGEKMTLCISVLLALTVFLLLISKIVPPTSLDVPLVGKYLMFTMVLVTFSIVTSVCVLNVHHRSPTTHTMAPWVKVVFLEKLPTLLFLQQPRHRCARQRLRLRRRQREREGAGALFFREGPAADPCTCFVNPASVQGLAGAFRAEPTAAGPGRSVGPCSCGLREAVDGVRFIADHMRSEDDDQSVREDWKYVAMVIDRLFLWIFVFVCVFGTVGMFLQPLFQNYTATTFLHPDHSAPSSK
Sequence of Neuronal acetylcholine receptor subunit alpha-7 (Q05941 23-502 limits assumed): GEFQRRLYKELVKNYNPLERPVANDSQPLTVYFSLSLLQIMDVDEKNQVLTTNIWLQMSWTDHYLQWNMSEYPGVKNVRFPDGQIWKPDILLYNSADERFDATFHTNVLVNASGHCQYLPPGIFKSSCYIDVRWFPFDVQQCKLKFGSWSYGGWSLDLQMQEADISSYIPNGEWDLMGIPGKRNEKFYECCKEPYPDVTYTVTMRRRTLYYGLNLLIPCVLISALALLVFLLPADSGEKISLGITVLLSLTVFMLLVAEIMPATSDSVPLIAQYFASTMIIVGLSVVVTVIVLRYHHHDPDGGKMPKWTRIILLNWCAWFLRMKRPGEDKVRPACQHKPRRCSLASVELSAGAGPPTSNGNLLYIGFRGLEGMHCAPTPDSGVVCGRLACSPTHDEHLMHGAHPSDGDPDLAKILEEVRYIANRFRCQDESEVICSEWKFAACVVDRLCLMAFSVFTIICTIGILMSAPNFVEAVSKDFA
T1 sequence (P04757 whole entry): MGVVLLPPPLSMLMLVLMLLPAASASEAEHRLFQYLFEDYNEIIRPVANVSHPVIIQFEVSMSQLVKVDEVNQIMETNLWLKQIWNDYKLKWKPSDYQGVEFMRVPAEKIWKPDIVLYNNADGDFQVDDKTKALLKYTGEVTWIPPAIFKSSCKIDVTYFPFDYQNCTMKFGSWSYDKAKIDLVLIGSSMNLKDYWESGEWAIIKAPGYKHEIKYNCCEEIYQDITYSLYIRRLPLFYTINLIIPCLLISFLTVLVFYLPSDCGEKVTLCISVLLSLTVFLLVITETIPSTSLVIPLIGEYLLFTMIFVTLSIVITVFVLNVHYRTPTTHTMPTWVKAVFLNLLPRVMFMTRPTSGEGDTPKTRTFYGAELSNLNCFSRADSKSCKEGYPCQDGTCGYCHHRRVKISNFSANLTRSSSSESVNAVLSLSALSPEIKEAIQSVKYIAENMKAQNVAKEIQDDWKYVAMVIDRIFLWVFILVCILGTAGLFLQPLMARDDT
T1 sequence (P12392 whole entry): as the sequence (P12392 whole entry) above

Row | SMILES | Ki [1] [µM] | Ki [2] [µM] | Ki [3] [µM] | Activity [4] | EC50 [5] | EC50 [6] [µM] | Ki [7] [µM] | pKi [7] | Ki [8] [µM] | pKi [8] | EC50 [9] [µM]
1 | C[C@H](CCOc1cnccn1)N(C)C | 8.3 | 42 | 0.24 |  |  |  |  |  |  |  | 
2 | C[C@H](CCOc1cccnc1)N(C)C | 8.3 | 4.9 | 0.03 |  |  |  |  |  |  |  | 
3 | Cc1cn(C)c(OCC[C@@H](C)N(C)C)n1 | 50 | 24 | 0.28 | inactive | 34 µM | 19 | > 1000 | < 3 | 1.5 | 5.82 | 
4 | C[C@H](CCOc1nc(Br)cn1C)N(C)C | 50 | 300 | 0.12 |  |  |  | 1000 | 3 |  |  | 
5 | C[C@H](CCOn1cccn1)N(C)C | 11 | 8.1 | 0.018 |  |  |  |  |  |  |  | 
6 | C[C@H](CCOc1nccs1)N(C)C | 1.8 | 4.7 | 0.013 |  |  |  |  |  |  |  | 
7 | C[C@H](CCOC(=O)N(C)C)N(C)C | 0.15 | 0.42 | 0.02 |  | 15.8 µM and 14 µM | 0.72 | > 1000 | < 3 | 0.079 | 7.1 | 11
